Test results published in patent US5576339A, “Pyridyl substituted cyclopentadienes for the treatment of inflamation” (priority 1995, dated 1996).

Columns and labels:
COX II enzyme = conditions: in words, literature; cited from earlier work
COX I = assay: Assay for COX I activity (PGE2 ELISA, recombinant enzyme); format: biochemical, human or murine; conditions: arachidonic acid (10 μM), pre-incubated 10-20 minutes, pH 8.0; read-out: COX I ID50
Protocol: (§1) A 2.0 kb fragment containing the coding region of either human or murine COX-I or human or murine COX-II was cloned into a BamH1 site of the baculovirus transfer vector pVL1393 (Invitrogen) to generate the baculovirus transfer vectors for COX-I and COX-II in a manner similar to the method of D. R. O'Reilly et al (Baculovirus Expression Vectors: A Laboratory Manual (1992)). Recombinant baculoviruses were isolated by transfecting 4 μg of baculovirus transfer vector DNA into SF9 insect cells (2×10e8) along with 200 ng of linearized baculovirus plasmid DNA by the calcium phosphate method. See M. D. Summers and G. E. Smith, A Manual of Methods for Baculovirus Vectors and Insect Cell Culture Procedures. Texas Agric. Exp. Station Bull. 1555 (1987). Recombinant viruses were purified by three rounds of plaque purification and high titer (10E7-10E8 pfu/ml) stocks of virus were prepared. For large scale production, SF9 insect cells were infected in 10 liter fermentors (0.5×10^6 /ml) with the recombinant baculovirus stock such that the multiplicity of infection was 0.1. […]
(§2) COX activity was assayed as PGE2 formed/μg protein/time using an ELISA to detect the prostaglandin released. […] The PGE2 formed was measured by standard ELISA technology (Cayman Chemical).

COX II = assay: Assay for COX II activity (PGE2 ELISA, recombinant enzyme); format: biochemical, human or murine; conditions: arachidonic acid (10 μM), pre-incubated 10-20 minutes, pH 8.0; read-out: COX II ID50
Protocol: as §1, §2

| SMILES | inhibition of the COX II enzyme (COX II enzyme) | IC50 (COX I) [nM] | IC50 (COX II) [nM] |
| --- | --- | --- | --- |
| CS(=O)(=O)Nc1ccc([N+](=O)[O-])cc1OC1CCCCC1 [N-(2-cyclohexyloxy-4-nitrophenyl)methanesulfonamide] | inhibits the COX II enzyme | – | – |
| CC1(C)C=C(c2ccc(F)cc2)C(c2ccc(S(C)(=O)=O)cc2)=C1 [Example 1, 1-Methylsulfonyl-4-[1,1-dimethyl-4-(4-fluorophenyl)cyclopenta-2,4-dien-3-yl]benzene] | – | 3680 | 50 |
| COc1ccc2cc(CC(=O)O)ccc2c1 [6-methoxy-2-napthylacetic acid] | selectively inhibit the COX II enzyme | – | – |
